# Laboratory results: patent US20060069132A1, “Azolecarboxamide herbicides” (priority 2004, published 2006)
# Assays:
# giant foxtail = assay: Test A pre-/postemergence herbicide test; format: in vivo, Setaria faberi
# How it was run: (§1)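 Both application timings were run together: directed soil spray over freshly planted seeds in sandy loam, and runoff spray onto 2–10 cm seedlings. Evaluation after ~10 days in greenhouse used a 0–100 visual scale versus untreated controls.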
# morningglory = assay: Test A pre-/postemergence herbicide test; format: in vivo, Ipomoea spp.
# How it was run: as §1
# velvetleaf [1] = assay: Test A pre-/postemergence herbicide test; format: in vivo, Abutilon theophrasti
# How it was run: as §1
# Surinam grass = assay: Test C pre-/postemergence herbicide test; format: in vivo, Urochloa decumbens; conditions: preemergence
# How it was run: (§2)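 Emerged plants at the 1- to 4-leaf stage (2–18 cm), or freshly planted seeds, received test chemicals in a non-phytotoxic solvent mixture with surfactant. Response was visually scored against controls after 12 to 14 days in the greenhouse, on a 0 (no effect) to 100 (complete control) scale.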
# corn = assay: Test C pre-/postemergence herbicide test; format: in vivo, Zea mays; conditions: preemergence
# How it was run: as §2
# kochia = assay: Test C pre-/postemergence herbicide test; format: in vivo, Kochia scoparia; conditions: preemergence
# How it was run: as §2
# lambsquarters = assay: Test C pre-/postemergence herbicide test; format: in vivo, Chenopodium album; conditions: preemergence
# How it was run: as §2
# pigweed = assay: Test C pre-/postemergence herbicide test; format: in vivo, Amaranthus retroflexus; conditions: preemergence
# How it was run: as §2
# velvetleaf [2] = assay: Test C pre-/postemergence herbicide test; format: in vivo, Abutilon theophrasti; conditions: preemergence
# How it was run: as §2
# rice = assay: Test C flooded paddy test; format: in vivo, Oryza sativa; conditions: for Plant response rating, Rice: 500 g ai/ha, visual rating after 12 to 14 days
# How it was run: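 Injury scored visually against controls on a 0 (no effect) to 100 (complete control) scale, 12 to 14 days after treatment in greenhouse. Flooded paddy plants treated at 2-leaf stage; postemergence plants at 1- to 4-leaf stage, 2 to 18 cm tall.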
# ducksalad = assay: Test C flooded paddy test; format: in vivo, Heteranthera limosa; conditions: for Plant response rating, Ducksalad: 500 g ai/ha, visual rating after 12 to 14 days
# [3] = Postemergence, 500 g ai/ha, 0 to 100 scale, 0 no effect, 100 complete control
# [4] = Postemergence, 2000 g ai/ha, 0 to 100 scale, 0 no effect, 100 complete control
# [5] = Preemergence, 500 g ai/ha, visual rating, 0 to 100 scale (0 no effect, 100 complete control)
# [6] = Preemergence, 2000 g ai/ha, 0 to 100 scale, 0 no effect, 100 complete control
# [7] = Preemergence, 2000 g ai/ha, visual rating, 0 to 100 scale (0 no effect, 100 complete control)
# [8] = 125 g ai/ha, scale 0 (no effect) to 100 (complete control), visual, 12 to 14 days
# [9] = 250 g ai/ha, scale 0 to 100 (0 no effect, 100 complete control), visual, 12 to 14 days
# [10] = 62 g ai/ha, scale 0 to 100 (0 no effect, 100 complete control)
# [11] = 125 g ai/ha, scale of 0 to 100, 0 is no effect, 100 is complete control
# [12] = 250 g ai/ha, scale of 0 to 100, 0 is no effect, 100 is complete control
# [13] = scale 0 to 100 (0 no effect, 100 complete control)
# [14] = preemergence, 500 g ai/ha, visual injury, 0 to 100 scale (0 no effect, 100 complete control)
# [15] = 125 g ai/ha, scale 0 to 100 (0 no effect, 100 complete control)
smiles,measurement,setting,value
CCn1nc(C(C)(C)C)cc1C(=O)Nc1cccc(C(=O)NCC2CC2)c1 [Compound 62],"Plant response rating, Foxtail, Giant",giant foxtail; [3],55
same,"Plant response rating, Foxtail, Giant",giant foxtail; [4],85
same,"Foxtail, Giant plant response rating",giant foxtail; [5],75
same,"Foxtail, Giant plant response rating",giant foxtail; [6],100
same,"Plant response rating, Morningglory",morningglory; [3],10
same,"Plant response rating, Morningglory",morningglory; [4],20
same,Morningglory plant response rating,morningglory; [5],20
same,Morningglory plant response rating,morningglory; [6],75
same,"Plant response rating, Velvetleaf",velvetleaf [1]; [4],20
same,Velvetleaf plant response rating,velvetleaf [1]; [5],70
same,Velvetleaf plant response rating,velvetleaf [1]; [7],95
same,"Plant response rating, Surinam Grass","Surinam grass; 31 g ai/ha, scale 0 to 100",0
same,"Plant response rating (0 = no effect, 100 = complete control), Surinam Grass",Surinam grass; 62 g ai/ha,5
same,"Plant response rating, Surinam Grass",Surinam grass; [8],10
same,"Plant response rating, Surinam Grass",Surinam grass; [9],50
same,"Plant response rating, Corn","corn; 31 g ai/ha, scale 0 to 100",0
same,"Plant response rating (0 = no effect, 100 = complete control), Corn",corn; 62 g ai/ha,0
same,"Plant response rating, Corn",corn; [8],0
same,"Plant response rating, Corn",corn; [9],0
same,"Plant response rating, Kochia","kochia; 31 g ai/ha, scale 0 to 100",100
same,"Plant response rating (0 = no effect, 100 = complete control), Kochia",kochia; 62 g ai/ha,100
same,"Plant response rating, Kochia",kochia; [8],100
same,"Plant response rating, Kochia",kochia; [9],100
same,"Plant response rating, Lambsquarters","lambsquarters; 31 g ai/ha, scale 0 to 100",100
same,"Plant response rating (0 = no effect, 100 = complete control), Lambsquarters",lambsquarters; 62 g ai/ha,100
same,"Plant response rating, Lambsquarters",lambsquarters; [8],100
same,"Plant response rating, Lambsquarters",lambsquarters; [9],100
same,"Plant response rating, Pigweed","pigweed; 31 g ai/ha, scale 0 to 100",90
same,"Plant response rating (0 = no effect, 100 = complete control), Pigweed",pigweed; 62 g ai/ha,95
same,"Plant response rating, Pigweed",pigweed; [8],95
same,"Plant response rating, Pigweed",pigweed; [9],95
same,"Plant response rating, Velvetleaf","velvetleaf [2]; 31 g ai/ha, scale 0 to 100",0
same,"Plant response rating, Velvetleaf",velvetleaf [2]; [9],70
same,Rice plant response rating,rice; [10],15
same,Rice plant response rating,rice; [11],25
same,Rice plant response rating,rice; [12],45
same,"Plant response rating, Rice",rice; [13],65
same,Ducksalad plant response rating,ducksalad; [10],25
same,Ducksalad plant response rating,ducksalad; [11],35
same,Ducksalad plant response rating,ducksalad; [12],90
same,"Plant response rating, Ducksalad",ducksalad; [13],90
CC(=O)c1cccc(NC(=O)c2cc(C(C)(C)C)nn2CCF)c1 [Compound 128],"Foxtail, Giant plant response rating",giant foxtail; [3],45
same,"Plant response rating, Foxtail, Giant",giant foxtail; [4],60
same,"Foxtail, Giant plant response rating",giant foxtail; [5],15
same,"Foxtail, Giant plant response rating",giant foxtail; [7],65
same,Morningglory plant response rating,morningglory; [3],10
same,"Plant response rating, Morningglory",morningglory; [4],15
same,Morningglory plant response rating,morningglory; [5],45
same,Morningglory plant response rating,morningglory; [7],85
same,Velvetleaf plant response rating,velvetleaf [1]; [3],20
same,"Plant response rating, Velvetleaf",velvetleaf [1]; [4],35
same,Velvetleaf plant response rating,velvetleaf [1]; [7],85
same,Velvetleaf plant response rating,velvetleaf [1]; [14],75
same,"Plant response rating (0 = no effect, 100 = complete control), Surinam Grass",Surinam grass; 62 g ai/ha,30
same,"Plant response rating, Surinam Grass",Surinam grass; [8],60
same,"Plant response rating (0 = no effect, 100 = complete control), Corn",corn; 62 g ai/ha,20
same,"Plant response rating, Corn",corn; [8],20
same,"Plant response rating (0 = no effect, 100 = complete control), Kochia",kochia; 62 g ai/ha,0
same,"Plant response rating, Kochia",kochia; [8],0
same,"Plant response rating, Lambsquarters",lambsquarters; [8],30
same,"Plant response rating, Pigweed",pigweed; [8],60
same,"Plant response rating, Velvetleaf",velvetleaf [2]; [8],100
same,Rice plant response rating,rice; [10],25
same,Rice plant response rating,rice; [15],40
same,Rice plant response rating,rice; [12],70
same,"Plant response rating, Rice",rice; [13],70
same,Ducksalad plant response rating,ducksalad; [10],80
same,Ducksalad plant response rating,ducksalad; [15],95
same,Ducksalad plant response rating,ducksalad; [12],95
same,"Plant response rating, Ducksalad",ducksalad; [13],95
CCNC(=O)c1ccc(F)c(NC(=O)c2cc(C3(C)CC3)nn2CC)c1 [Compound 300],"Foxtail, Giant plant response rating",giant foxtail; [3],55
same,"Plant response rating, Foxtail, Giant",giant foxtail; [4],90
same,"Foxtail, Giant plant response rating",giant foxtail; [7],100
same,"Foxtail, Giant plant response rating",giant foxtail; [14],95
same,Morningglory plant response rating,morningglory; [3],80
same,"Plant response rating, Morningglory",morningglory; [4],95
same,Morningglory plant response rating,morningglory; [7],100
same,Morningglory plant response rating,morningglory; [14],90
same,Velvetleaf plant response rating,velvetleaf [1]; [3],60
same,"Plant response rating, Velvetleaf",velvetleaf [1]; [4],80
same,Velvetleaf plant response rating,velvetleaf [1]; [7],100
same,Velvetleaf plant response rating,velvetleaf [1]; [14],85
same,"Plant response rating, Surinam Grass","Surinam grass; 62 g ai/ha, scale 0 to 100",30
same,"Plant response rating, Surinam Grass","Surinam grass; 250 g ai/ha, scale 0-100",100
same,"Plant response rating, Corn","corn; 62 g ai/ha, scale 0 to 100",30
same,"Plant response rating, Corn",corn; [8],30
same,"Plant response rating, Corn","corn; 250 g ai/ha, scale 0-100",35
same,"Plant response rating, Kochia","kochia; 62 g ai/ha, scale 0 to 100",60
same,"Plant response rating, Kochia",kochia; [8],100
same,"Plant response rating, Kochia","kochia; 250 g ai/ha, scale 0-100",100
same,"Plant response rating, Lambsquarters","lambsquarters; 62 g ai/ha, scale 0 to 100",100
same,"Plant response rating, Lambsquarters",lambsquarters; [8],100
same,"Plant response rating, Lambsquarters","lambsquarters; 250 g ai/ha, scale 0-100",100
same,"Plant response rating, Pigweed","pigweed; 62 g ai/ha, scale 0 to 100",100
same,"Plant response rating, Pigweed",pigweed; [8],100
same,"Plant response rating, Pigweed","pigweed; 250 g ai/ha, scale 0-100",100
same,"Plant response rating, Velvetleaf","velvetleaf [2]; 62 g ai/ha, scale 0 to 100",5
same,"Plant response rating, Velvetleaf","velvetleaf [2]; 250 g ai/ha, scale 0-100",5
same,Rice plant response rating,"rice; 62 g ai/ha, scale 0 to 100",40
same,Rice plant response rating,rice; [15],55
same,Rice plant response rating,rice; [12],70
same,"Plant response rating, Rice",rice; [13],75
same,Ducksalad plant response rating,"ducksalad; 62 g ai/ha, scale 0 to 100",75
same,Ducksalad plant response rating,ducksalad; [15],80
same,Ducksalad plant response rating,ducksalad; [12],85
same,"Plant response rating, Ducksalad",ducksalad; [13],90
